US8148404B2, “Modulators of CB1 receptors” (7TM Pharma A/S, priority 2006, dated 2012)
pIC50: −log10 of the molar value.

The compounds below were run against T1, human CB1 receptor (Homo sapiens, UniProt P21554) (assay: Cannabinoid Receptor-1 functional assay: inhibition of CP55940-induced [35S]GTPγS binding to membranes of CHO-K1 cells expressing human CB1). Conditions: 3 nM CP55940, [35S]GTPγS SPA, hCB1 membranes; read-out: IC50 value for antagonizing a CB1 receptor agonist.
T1 construct: expressed in transfected cells; membranes used
Format: biochemical
Source text: Transfection and Cell Culture—The cDNA encoding the human CB1 (Cannabinoid Receptor-1) receptor (GenBank accession number NM_016083) was cloned from a human adipose tissue cDNA library and cloned into the eukaryotic expression vector pcDNA3.1 (Invitrogen).
Chinese Hamster Ovary cells (CHO-K1) stably expressing recombinant human CB1 were generated by transfecting the plasmid containing the coding sequence of the human CB1 receptor in CHO-K1 cells, using lipofectamin, according to the manufacturer instructions. Resistant clones were selected in the presence of 600 μg/ml G418 (Life technology). Stably transfected CHO-K1 cells were maintained in Ham's F-12 culture medium (Invitrogen), supplemented with 10% fetal calf serum (Invitrogen), 100 U/ml penicillin, 100 μg/ml streptomycin (Life Technology), and 600 μg/ml G418.
Functional activities of the above examples of compounds of the invention were assessed in vitro by measuring their ability to inhibit CP55940-induced [^35S]GTPγS binding to membranes prepared from CHO-K1 cells expressing the human CB1 receptor (described in Transfection and Cell Culture). CP55940 is a well known non-selective CB1 and CB2 receptor agonist (e.g Felder et al., 1995, Molecular Pharmacology, (48) 443-50). Membranes were prepared by a standard procedure. Briefly, cells were harvested using 10 mM EDTA and collected by centrifugation. Pelleted cells were homogenized in ice-cold 20 mM Hepes (pH 7.4), 10 mM EDTA and protease inhibitors (Complete protease inhibitor cocktail tablet, Roche) using an Ultra Turrax Homogenizer. The homogenate was centrifuged at 14 000 rpm for 45 min. at 4° C. The resultant pellet was resuspended in the same buffer but with only 0.1 mM EDTA and was again centrifuged at 14 000 rpm for 45 min. at 4° C. The resulting pellet (membranes) was resuspended in 20 mM Hepes (pH 7.4), 0.1 mM EDTA, 2 mM MgCl2 and protease inhibitors and protein concentration was determined by Micro BCA Protein Assay Reagent Kit (Pierce Biotechnology) according to the manufacturer instructions. The [^35S]GTPγS SPA (Scintillation Proximity Assay) binding assay was performed by incubating 5 μg/well hCB1-membranes with 1 nM [^35S]GTPγS (Perkin Elmer—NEG 030H) in the presence of 3 nM of CP55940 and various concentrations of the test compounds at room temperature for 1 hr in 96-well microtiter plates. 0.4 mg/well SPA beads (PVT-WGA; RPNQ0001 Amersham Pharmacia Biotech) were then added and the incubation continued for further 30 min. on an orbital shaker. The assay buffer contained 50 mM HEPES (pH 7.5), 50 mM NaCl, 2.5 mM MgCl2, 0.1% BSA, 1 μM GDP and 100 μg/ml Saponin. Microtiter plates were centrifuged at 1500 rpm for 5 min. and radioactivity was read immediately using a Topcounter (PerkinElmer Life Sciences). Data were analyzed and IC50 values determined by non-linear regression using the Prism software (GraphPad Software, San Diego).

T1 sequence (P21554 whole entry): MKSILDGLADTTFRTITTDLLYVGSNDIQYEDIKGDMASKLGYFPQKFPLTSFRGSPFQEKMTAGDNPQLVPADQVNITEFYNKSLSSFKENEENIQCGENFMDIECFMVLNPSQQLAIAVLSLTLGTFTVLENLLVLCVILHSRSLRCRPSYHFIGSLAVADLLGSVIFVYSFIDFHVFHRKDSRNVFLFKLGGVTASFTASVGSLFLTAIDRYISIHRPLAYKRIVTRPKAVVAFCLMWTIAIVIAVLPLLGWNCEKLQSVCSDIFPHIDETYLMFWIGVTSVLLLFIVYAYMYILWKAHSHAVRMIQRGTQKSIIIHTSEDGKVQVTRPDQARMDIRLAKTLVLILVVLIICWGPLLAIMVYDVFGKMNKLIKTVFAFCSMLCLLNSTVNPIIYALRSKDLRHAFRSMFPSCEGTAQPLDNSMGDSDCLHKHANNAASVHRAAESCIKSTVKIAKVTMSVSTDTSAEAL

`CO[C@H]1CN(C(=O)c2nn(-c3ccccc3Cl)c(-c3ccc(Cl)cc3)c2CC(=O)O)CC[C@@H]1c1ccccc1` (relative stereo) [[1.56], {1-(2-Chloro-phenyl)-5-(4-chloro-phenyl)-3-[trans-4-phenyl-3-methoxy-piper-idine-1-carbonyl]-1H-pyrazol-4-yl}-acetic acid] and `O=C(O)Cc1c(C(=O)N2CC=C(c3ccccc3)CC2)nn(-c2ccccc2Cl)c1-c1ccc(Cl)cc1` [Compound [1.1], [1-(2-Chloro-phenyl)-5-(4-chloro-phenyl)-3-(4-phenyl-3,6-dihydro-2H-pyridine-1-carbonyl)-1H-pyrazol-4-yl]-acetic acid] cannot be ordered by pIC50: > 6.52 for the first, > 6.52 for the second.

Compared with `O=C(O)Cc1c(C(=O)N2CCN(c3ccccc3)CC2)nn(-c2ccccc2Cl)c1-c1ccc(Cl)cc1` [Compound [1.2], [1-(2-Chloro-phenyl)-5-(4-chloro-phenyl)-3-(4-phenyl-piperazine-1-carbonyl)-1H-pyrazol-4-yl]-acetic acid], `O=C(O)Cc1c(C(=O)N2CCC(O)(c3ccccc3)CC2)nn(-c2ccccc2Cl)c1-c1ccc(Cl)cc1` [[1.14], [1-(2-Chloro-phenyl)-5-(4-chloro-phenyl)-3-(4-hydroxy-4-phenyl-piperidine-1-carbonyl)-1H-pyrazol-4-yl]-acetic acid] is higher in pIC50: 5.52 to 6.52 for the first, > 6.52 for the second.

`O=C(O)COc1c(C(=O)N2CCC(c3ccc(F)cc3)CC2)nn(-c2ccccc2Cl)c1-c1ccc(Cl)cc1` [Compound [1.3], {5-(4-Chloro-phenyl)-1-(2-chloro-phenyl)-3-[4-(4-fluoro-phenyl)-piper-idine-1-carbonyl]-1H-pyrazol-4-yloxy}-acetic acid] and `O=C(O)Cc1c(C(=O)N2CCC(c3ccc(F)cc3)CC2)nn(-c2ccccc2Cl)c1-c1ccc(Cl)cc1` [[1.5], {5-(4-Chloro-phenyl)-1-(2-chloro-phenyl)-3-[4-(4-fluoro-phenyl)-piperidine-1-carbonyl]-1H-pyrazol-4-yl}-acetic acid] cannot be ordered by pIC50: > 6.52 for the first, > 6.52 for the second.

Compared with `O=C(O)Cc1c(C(=O)N2CCC(O)(c3cccnc3)CC2)nn(-c2ccccc2Cl)c1-c1ccc(Cl)cc1` [Compound [1.8], [1-(2-Chloro-phenyl)-5-(4-chloro-phenyl)-3-(4′-hydroxy-3′,4′,5′,6′-tetrahydro-2′H-[3,4′]bipyridinyl-1′-carbonyl)-1H-pyrazol-4yl]-acetic acid], `O=C(O)Cc1c(C(=O)N2CCC(O)(c3ccccn3)CC2)nn(-c2ccccc2Cl)c1-c1ccc(Cl)cc1` [[1.9], [1-(2-Chloro-phenyl)-5-(4-chloro-phenyl)-3-(4′-hydroxy-3′,4′,5′,6′-tetrahydro-2′H-[2,4′]bipyridinyl-1′-carbonyl)-1H-pyrazol-4yl]-acetic acid] is higher in pIC50: 5.00 to 5.52 for the first, 5.52 to 6.52 for the second. The second is the more potent here.

`O=C(O)Cc1c(C(=O)N2CCC(c3cccc(F)c3)CC2)nn(-c2ccccc2Cl)c1-c1ccc(Cl)cc1` [Compound [1.13], {1-(2-Chloro-phenyl)-5-(4-chloro-phenyl)-3-[4-(3-fluoro-phenyl)-piper-idine-1-carbonyl]-1H-pyrazol-4-yl}-acetic acid] and `O=C(O)Cc1c(C(=O)N2CCC(c3ccc(F)cc3)C2)nn(-c2ccccc2Cl)c1-c1ccc(Cl)cc1` (stereo not drawn) [[1.15], {1-(2-Chloro-phenyl)-5-(4-chloro-phenyl)-3-[3-(4-fluoro-phenyl)-pyrrol-idine-1-carbonyl]-1H-pyrazol-4-yl}-acetic acid] cannot be ordered by pIC50: > 6.52 for the first, > 6.52 for the second.

`CC(C(=O)O)c1c(C(=O)N2CCC(c3ccccc3F)CC2)nn(-c2ccccc2Cl)c1-c1ccc(Cl)cc1` (stereo not drawn) [Compound [1.52], 2-{1-(2-Chloro-phenyl)-5-(4-chloro-phenyl)-3-[4-(2-fluoro-phenyl)-piperidine-1-carbonyl]-1H-pyrazol-4-yl}-propionic acid] and `O=C(O)C(O)c1c(C(=O)N2CCC(c3ccccc3F)CC2)nn(-c2ccccc2Cl)c1-c1ccc(Cl)cc1` (stereo not drawn) [Compound [1.65], {1-(2-Chloro-phenyl)-5-(4-chloro-phenyl)-3-[4-(2-fluoro-phenyl)-piperidine-1-carbonyl]-1H-pyrazol-4-yl}-2-hydroxy acetic acid] cannot be ordered by pIC50: > 6.52 for the first, > 6.52 for the second.

First: O=C(c1nn(-c2ccccc2Cl)c(-c2ccc(Cl)cc2)c1Cc1nn[nH]n1)N1Cc2ccc(F)cc2C1 [Compound [3.1], [5-(4-Chloro-phenyl)-1-(2-chloro-phenyl)-4-(2H-tetrazol-5-ylmethyl)-1H-pyrazol-3-yl]-(5-fluoro-1,3-dihydro-isoindol-2-yl)-methanone]
Second: O=C(O)Cc1c(C(=O)N2CCc3ccccc3C2)nn(-c2ccccc2Cl)c1-c1ccc(Cl)cc1 [[1.4], [5-(4-Chloro-phenyl)-1-(2-chloro-phenyl)-3-(3,4-dihydro-1H-isoquinoline-2-carbonyl)-1H-pyrazol-4-yl]-acetic acid]
The pIC50 of the first is lower: 5.52 to 6.52 for the first, > 6.52 for the second.

`O=C(O)Cc1c(C(=O)N2CCC(O)(Cc3ccccc3)CC2)nn(-c2ccccc2Cl)c1-c1ccc(Cl)cc1` [[1.6], [3-(4-Benzyl-4-hydroxy-piperidine-1-carbonyl)-5-(4-chloro-phenyl)-1-(2-chloro-phenyl)-1H-pyrazol-4-yl]-acetic acid] and `O=C(O)Cc1c(C(=O)N2CCC(O)(c3ccccc3F)CC2)nn(-c2ccccc2Cl)c1-c1ccc(Cl)cc1` [[1.21], {1-(2-Chloro-phenyl)-5-(4-chloro-phenyl)-3-[4-(2-fluoro-phenyl)-4-hydroxy-piperidine-1carbonyl]-1H-pyrazol-4-yl}-acetic acid] cannot be ordered by pIC50: > 6.52 for the first, > 6.52 for the second.

`O=C(O)Cc1c(C(=O)N2CCC(O)(c3ccc(F)cc3)CC2)nn(-c2ccccc2Cl)c1-c1ccc(Cl)cc1` [[1.7], {1-(2-Chloro-phenyl)-5-(4-chloro-phenyl)-3-[4-(4-fluoro-phenyl)-4-hydroxy-piperidine-1-carbonyl]-1H-pyrazol-4-yl}-acetic acid] and `O=C(O)Cc1c(C(=O)N2CCC(O)(c3ccc(Cl)cc3)CC2)nn(-c2ccccc2Cl)c1-c1ccc(Cl)cc1` [[1.12], {1-(2-Chloro-phenyl)-5-(4-chloro-phenyl)-3-[4-(4-chloro-phenyl)-4-hydroxy-piperidine-1carbonyl]-1H-pyrazol-4-yl}-acetic acid] cannot be ordered by pIC50: > 6.52 for the first, > 6.52 for the second.

`O=C(O)Cc1c(C(=O)N2CCC(O)(c3ccc(C(F)(F)F)cc3)CC2)nn(-c2ccccc2Cl)c1-c1ccc(Cl)cc1` [[1.10], {1-(2-Chloro-phenyl)-5-(4-chloro-phenyl)-3-[4-hydroxy-4-(4-trifluoromethyl-phenyl)-piperidine-1-carbonyl]-1H-pyrazol-4-yl}-acetic acid] and `O=C(O)Cc1c(C(=O)N2CCC(O)(c3cccc(C(F)(F)F)c3)CC2)nn(-c2ccccc2Cl)c1-c1ccc(Cl)cc1` [[1.11], {1-(2-Chloro-phenyl)-5-(4-chloro-phenyl)-3-[4-hydroxy-4-(3-trifluoromethyl-phenyl)-piperidine-1-carbonyl]-1H-pyrazol-4-yl}-acetic acid] cannot be ordered by pIC50: > 6.52 for the first, > 6.52 for the second.

`O=C(O)Cc1c(C(=O)N2CCN(c3ncccn3)CC2)nn(-c2ccccc2Cl)c1-c1ccc(Cl)cc1` [[1.16], [5-(4-Chloro-phenyl)-1-(2-chloro-phenyl)-3-(4-pyrimidin-2-yl-piperazine-1-carbonyl)-1H-pyrazol-4-yl]-acetic acid] and `Cc1ccc(C2(O)CCN(C(=O)c3nn(-c4ccccc4Cl)c(-c4ccc(Cl)cc4)c3CC(=O)O)CC2)nc1` [[1.22], [5-(4-Chloro-phenyl)-1-(2-chloro-phenyl)-3-(4′-hydroxy-5-methyl-3′,4′,5′,6′-tetrahydro-2′H-[2,4′]bipyridinyl-1′-carbonyl)-1H-pyrazol-4-yl]-acetic acid] fall in the same range of pIC50: 5.52 to 6.52 for the first, 5.52 to 6.52 for the second.

Compared with `COC1(c2ccc(F)cc2)CCN(C(=O)c2nn(-c3ccccc3Cl)c(-c3ccc(Cl)cc3)c2CC(=O)O)CC1` [[1.17], {5-(4-Chloro-phenyl)-1-(2-chloro-phenyl)-3-[4-(4-fluoro-phenyl)-4-methoxy-piperidine-1carbonyl]-1H-pyrazol-4-yl}-acetic acid], `Cc1noc(C2CCN(C(=O)c3nn(-c4ccccc4Cl)c(-c4ccc(Cl)cc4)c3CC(=O)O)CC2)n1` [[1.20], {1-(2-Chloro-phenyl)-5-(4-chloro-phenyl)-3-[4-(3-methyl-[1,2,4]oxadiazol-5-yl)-piperidine-1-carbonyl]-1H-pyrazol-4-yl}-acetic acid] is lower in pIC50: > 6.52 for the first, 5.52 to 6.52 for the second.
